*1 amine or outer side, *2 acyl side, *3 side chain or, on linkers, in order; H or OH if unused. Where a SMILES comes first, the peptide text is derived from it. The star is where a group is joined. X1 = O=C(CCCC[C@@H]1SC[C@@H]2NC(=O)N[C@@H]21)NCCCOCCOCCOCCCN*; Suc = O=C(CCC(=O)[*:2])[*:1]
What was measured:
SNX27_PDZ [1] = experiment: AP-MS control pull-down on leftover resin, SNX27_PDZ bait, total Jurkat extracts; assay type: binding, human
Protocol: (§1) Leftover beads from nHU-MS experiments were washed three times immediately after the separation of the supernatant [10 resin volume in buffer containing 50 mM tris (pH 8.5), 150 mM NaCl, 1% Triton X-100, 10× cOmplete EDTA-free protease inhibitor cocktail, 2 mM EDTA, and 1 mM TCEP]. Then, the beads were washed two times [10 resin volume buffer containing 50 mM tris (pH 8.5), 150 mM NaCl, and 1 mM TCEP]. Last, captured protein was eluted from the resin in two steps, and the eluted fractions were pooled. For each elution, the beads were incubated for 30 min with three resin volume buffer containing 20 mM tris (pH 8.5), 100 mM NaCl, 500 μM TCEP, and 8 M urea. Between each step, the beads were separated by mild centrifugation, and the supernatant was removed by gentle pipetting.
(§2) The nHU samples were precipitated with trichloroacetic acid (TCA) 20% overnight at 4°C and centrifuged at 14,000 rpm for 10 min at 4°C. The protein pellets were washed twice with 1 ml of cold acetone and air-dried. The protein extracts were solubilized in 8 M urea, reduced with 5 mM TCEP for 30 min, and alkylated with 10 mM iodoacetamide for 30 min in the dark. Double digestion was performed at 37°C with 500 ng of endoproteinase Lys-C (Wako, Richmond, USA) for 4 hours, followed by fourfold dilution and an overnight digestion with 500 ng of trypsin (Promega, Charbonnieres les Bains, France). Peptide mixtures were then desalted on a C18 spin-column and dried on a speed vacuum.
(§3) Samples were analyzed using an Ultimate 3000 nano-RSLC coupled in line via a nano-electrospray ionization source, with an LTQ-Orbitrap ELITE mass spectrometer (Thermo Fisher Scientific, San Jose, CA) or with the Orbitrap Exploris 480 mass spectrometer (Thermo Fisher Scientific, Bremen, Germany) equipped with a high field asymmetric ion mobility spectrometry (FAIMS) module. Peptide mixtures were injected in 0.1% trifluoroacetic acid on a C18 Acclaim PepMap100 trap column [75 μm inner diameter (ID) × 2 cm, 3 μm, 100 Å, Thermo Fisher Scientific] for 3 min at 5 μl/min with 2% acetonitrile (ACN) and 0.1% formic acid (FA) in H2O and then separated on a C18 Acclaim PepMap100 nano-column (75 μm ID × 50 cm, 2.6 μm, 150 Å, Thermo Fisher Scientific) at 300 nl/min and 40°C with a 90-min linear gradient from 5 to 30% buffer B (A: 0.1% FA in H2O/B: 80% ACN, 0.1% FA in H2O) and regeneration at 5% B. Spray voltage was set to 2.1 kV and heated capillary temperature was set to 280°C.
For the Orbitrap Elite, the mass spectrometer was operated in positive ionization mode in data-dependent mode with survey scans from mass/charge ratio (m/z) 350 to 1500 acquired in the Orbitrap at a resolution of 120,000 at m/z 400. The 20 most intense peaks from survey scans were selected for further fragmentation in the linear ion trap with an isolation window of 2.0 Da and were fragmented by collision-induced dissociation (CID) with a normalized collision energy of 35% (TOP 20 CID method). Unassigned and single-charged states were excluded from fragmentation. The ion target value for the survey scans (in the Orbitrap) and the MS2 mode (in the linear ion trap) were set to 1E6 and 5E3, respectively, and the maximum injection time was set to 100 ms for both scan modes. Dynamic exclusion was set to 20 s after one repeat count with mass width at ±10 parts per million (ppm). […]

SNX27_PDZ [2] = experiment: nHU-MS, SNX27_PDZ bait, total Jurkat extracts, series 1; assay type: binding, human
Protocol: (§4) The empty His6-AviTag-MBP-TEV vector was used to produce biotinylated MBP for control experiments. Proteins were coexpressed with BirA biotin ligase (PET21a-BirA, Addgene, no. 20857) in Escherichia coli BL21(DE3) cells. At isopropyl-β-D-thiogalactopyranoside (IPTG) induction (1 mM IPTG at 18°C overnight), 50 μM biotin was added to the media. Harvested cells were lysed in a buffer containing 50 mM tris (pH 7.5), 150 to 300 mM NaCl, 50 μM biotin, 2 mM β-mercaptoethanol, cOmplete EDTA-free protease inhibitor cocktail (Roche, Basel, Switzerland), 1% Triton X-100, and trace amount of deoxyribonuclease, ribonuclease, and lysozyme. Lysates were frozen at −20°C before further purification steps. Lysates were sonicated and centrifuged for clarification. Expressed proteins were captured on in-house prepacked Ni-IDA (Protino Ni-IDA Resin, Macherey-Nagel, Duren, Germany) columns and were washed with at least 10 column volumes of cold wash buffer [50 mM tris (pH 7.5), 150 mM NaCl, and 2 mM β-mercaptoethanol] before elution with 250 mM imidazole. The Ni elution was collected directly on a preequilibrated amylose column (amylose high flow resin, New England Biolabs, Ipswich, MA). Amylose column was washed with 5 column volumes of cold wash buffer before fractionated elution in a buffer containing 25 mM Hepes (pH 7.5), 150 mM NaCl, 1 mM TCEP, 10% glycerol, 5 mM maltose, and cOmplete EDTA-free protease inhibitor cocktail. The concentration of proteins was determined by their ultraviolet absorption at 280 nm before aliquots were snap-frozen in liquid nitrogen and stored at −80°C.
(§5) For saturating streptavidin resin with biotinylated peptides or biotin, 50 μl of streptavidin resin was mixed with biotin or peptide at 40 to 60 μM concentration in 6 to 6.5 resin volume for 60 min. To saturate streptavidin resin with biotinylated proteins, 50 μl of streptavidin resin (Streptavidin Sepharose High Performance, Cytiva) was mixed with biotinylated MBP or MBP-PDZ at 40 to 50 μM concentration in 20× resin volume for 60 min. After saturation, resins were washed a single time [10 resin volume, holdup buffer: 50 mM tris (pH 7.5), 300 mM NaCl, and 1 mM TCEP, 0.22-μm filtered] and were depleted with biotin (10 resin volume, 10 min, holdup buffer supplemented with 100 μM biotin). Last, resins were washed two times (10 resin volume, holdup buffer).
(§6) For single-point nHU experiments carried out at ~10 μM bait concentration, 50 μl of saturated streptavidin resin was mixed with 200 μl of cell lysate (2 mg/ml). Titration experiments were carried out by mixing control and bait-saturated resin and keeping the total resin volume constant; e.g., ~5 μM bait concentration can be achieved by mixing 25 μl of bait-saturated streptavidin resin with 25 μl of control resin and 200 μl of cell lysate (2 mg/ml). Control and bait-saturated resins were prepared in larger amounts, and a serial dilution was prepared with these presaturated resins to achieve different resin ratios.
(§7) Unless specified elswhere, the nHU mixture was incubated at 4°C for 2 hours. After the incubation ended, the resin was separated from the supernatant by a brief centrifugation (15 s, 2000 g). Then, half of the supernatant was removed by pipetting without any delay to avoid any resin contamination; e.g., 100 μl of supernatant is collected if 200 μl of cell lysate was used as analyte. Alternatively, the supernatant can be centrifuged an additional time to clarify it further, removing any possible resin contamination. In principle, the separation of the supernatant should be as fast as possible since any delay can perturb the equilibrium. […] Alternatively, the resin can be separated from the supernatant using filter plates (e.g., various products of Millipore, Burlington, MA) or spin columns (e.g., Pierce spin cups—cellulose acetate filter from Thermo Fisher Scientific, Waltham, MA) to achieve faster separation. […]

SNX27_PDZ [3] = experiment: AP-MS control pull-down on leftover resin, SNX27_PDZ bait, total SH-SY5Y extracts; assay type: binding, human; details: n = 6
Protocol: as §1, §2, §3
For the Orbitrap Elite, the mass spectrometer was operated in positive ionization mode in data-dependent mode with survey scans from mass/charge ratio (m/z) 350 to 1500 acquired in the Orbitrap at a resolution of 120,000 at m/z 400. […]

SNX27_PDZ [4] = experiment: nHU-MS, SNX27_PDZ bait, total SH-SY5Y extracts; assay type: binding, human; details: for pKapp_HU_not_filtered / pKapp_significant_binders_HU: apparent; for pKapp_HU_not_filtered: Eq. 2, not filtered for significance; for pKapp_significant_binders_HU: Eq. 2, significant binders (1 σ, P < 0.05); for BI_HU / FC_HU (log2 fold change) / Ratio_HU: n = 6
Protocol: as §4, §5, §6, §7

SCRIB PDZ2 = details: fragmentomic, isolated PDZ domain; cited from earlier work
From the text: (§8) Supplement sciadv.ade3828_table_s1.zip/sciadv.ade3828_table_s1.xlsx, sheet "nHU-WB_SP"

SCRIB PDZ3 = details: fragmentomic, isolated PDZ domain; cited from earlier work
From the text: as §8

SCRIB PDZ4 = details: fragmentomic, isolated PDZ domain; cited from earlier work
From the text: as §8

[5] = biological target: isolated PDZ domain of SNX27; details: 10-mer PBM peptide vs isolated PDZ domain, holdup; cited from earlier work
SCRIB PDZ1 = details: fragmentomic, isolated PDZ domain; cited from earlier work
From the text: Supplement sciadv.ade3828_table_s1.zip/sciadv.ade3828_table_s1.xlsx, sheet "nHU-WB_SP" | column: Domain-motif fragmentomic affinities (ProfAff)

full-length SNX27 = experiment: nHU-MS, recombinant full-length SNX27 bait, total Jurkat extracts; assay type: binding, human; details: apparent, Fig. 4D, n = 6
Protocol: as §4, with “Amylose column was washed with 5 column volumes of cold wash buffer before fractionated elution in a buffer containing 25 mM Hepes (pH 7.5), 150 mM NaCl, 1 mM TCEP, 10% glycerol, 5 mM maltose, and cOmplete EDTA-free protease inhibitor cocktail.” left out, “−80°C. […]” for “−80°C.”

[6] = biological target: isolated PDZ domain of SNX27; details: calorimetry; cited from earlier work
[7] = biological target: endogenous full-length SCRIB (Homo sapiens, UniProt Q14160); assay type: binding; details: titration, Jurkat extract
Chain of endogenous full-length SCRIB (Q14160 whole entry): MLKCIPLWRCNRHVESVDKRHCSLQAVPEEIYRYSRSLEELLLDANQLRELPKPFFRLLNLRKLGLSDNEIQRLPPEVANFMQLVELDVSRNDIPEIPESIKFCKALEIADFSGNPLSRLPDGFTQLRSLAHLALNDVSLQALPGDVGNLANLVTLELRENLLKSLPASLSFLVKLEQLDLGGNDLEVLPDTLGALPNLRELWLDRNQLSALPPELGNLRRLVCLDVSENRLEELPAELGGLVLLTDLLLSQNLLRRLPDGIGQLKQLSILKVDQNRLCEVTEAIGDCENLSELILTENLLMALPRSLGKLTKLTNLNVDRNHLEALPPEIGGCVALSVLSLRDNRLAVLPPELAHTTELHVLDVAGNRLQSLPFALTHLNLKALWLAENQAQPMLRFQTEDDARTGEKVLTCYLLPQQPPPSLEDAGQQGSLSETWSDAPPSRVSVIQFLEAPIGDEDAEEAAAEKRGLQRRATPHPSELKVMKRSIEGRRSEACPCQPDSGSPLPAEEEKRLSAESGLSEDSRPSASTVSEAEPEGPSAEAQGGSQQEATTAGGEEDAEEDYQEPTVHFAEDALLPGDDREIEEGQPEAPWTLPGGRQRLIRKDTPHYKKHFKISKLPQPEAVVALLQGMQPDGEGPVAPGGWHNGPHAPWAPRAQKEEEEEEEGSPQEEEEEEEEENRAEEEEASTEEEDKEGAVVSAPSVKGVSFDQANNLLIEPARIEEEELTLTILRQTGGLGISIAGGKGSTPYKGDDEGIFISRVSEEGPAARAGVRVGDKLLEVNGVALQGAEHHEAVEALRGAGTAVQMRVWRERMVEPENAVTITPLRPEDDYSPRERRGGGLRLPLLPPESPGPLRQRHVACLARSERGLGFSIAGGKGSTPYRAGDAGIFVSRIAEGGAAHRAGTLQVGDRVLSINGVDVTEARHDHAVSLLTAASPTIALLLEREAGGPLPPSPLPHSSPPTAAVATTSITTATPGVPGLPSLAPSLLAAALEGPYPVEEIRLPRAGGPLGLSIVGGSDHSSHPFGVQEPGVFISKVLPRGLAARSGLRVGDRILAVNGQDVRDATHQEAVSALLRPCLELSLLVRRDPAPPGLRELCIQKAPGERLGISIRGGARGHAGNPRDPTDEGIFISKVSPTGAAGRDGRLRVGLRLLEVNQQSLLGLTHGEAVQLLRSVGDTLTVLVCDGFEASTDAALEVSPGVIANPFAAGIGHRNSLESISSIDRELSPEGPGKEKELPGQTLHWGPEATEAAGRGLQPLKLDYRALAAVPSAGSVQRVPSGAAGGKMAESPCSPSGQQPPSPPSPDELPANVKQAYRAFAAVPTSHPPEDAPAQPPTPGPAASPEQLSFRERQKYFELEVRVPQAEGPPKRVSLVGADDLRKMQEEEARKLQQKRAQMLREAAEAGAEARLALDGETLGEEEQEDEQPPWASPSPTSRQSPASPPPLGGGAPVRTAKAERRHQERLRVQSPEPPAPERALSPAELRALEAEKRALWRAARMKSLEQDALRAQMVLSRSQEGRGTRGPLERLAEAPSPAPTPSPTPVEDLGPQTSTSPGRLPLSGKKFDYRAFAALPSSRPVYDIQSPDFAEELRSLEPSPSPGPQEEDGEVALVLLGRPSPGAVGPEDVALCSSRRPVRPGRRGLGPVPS

[8] = Jurkat, series 1, leftover resin, n = 6

MACROH2A1
Ratio_AP (SNX27_PDZ [1]; AP-MS control pull-down, SNX27/MBP, total Jurkat extract): 19.7749
FC_AP (SNX27_PDZ [1]; AP-MS control pull-down, SNX27 vs MBP, total Jurkat extract): 4.3056
BINDER_AP (SNX27_PDZ [1]; AP-MS control pull-down, total Jurkat extract, BINDS / DOES NOT BIND): BINDS
Ratio_HU (SNX27_PDZ [2]; nHU-MS, SNX27/MBP, total Jurkat extract, sheet "SNX27&Jurkat"): 0.6592
BI_HU (SNX27_PDZ [2]; nHU-MS, SNX27 bait vs MBP control, total Jurkat extract, sheet "SNX27&Jurkat"): 0.3408
pKapp_HU_not_filtered (SNX27_PDZ [2]; nHU-MS, SNX27 bait, total Jurkat extract, not filtered for significance): 4.715
FC_HU (SNX27_PDZ [2]; nHU-MS, SNX27 vs MBP control, total Jurkat extract, sheet "SNX27&Jurkat"): -0.6013

ELOC: Elongin-C
FC_AP (log2 fold change) (SNX27_PDZ [3]): -2.345
Ratio_AP (SNX27_PDZ [3]): 0.1968
pKapp_HU_not_filtered (SNX27_PDZ [4]): 4.672
pKapp_significant_binders_HU (SNX27_PDZ [4]): 4.672
BI_HU (SNX27_PDZ [4]): 0.3189
FC_HU (log2 fold change) (SNX27_PDZ [4]): -0.5541
Ratio_HU (SNX27_PDZ [4]): 0.6811

TXNDC12: Thioredoxin domain-containing protein 12 OS=Homo sapiens
FC_AP (log2 fold change) (SNX27_PDZ [1]; [8]): -0.5204
Ratio_AP (SNX27_PDZ [1]; [8]): 0.6972
BI_HU (SNX27_PDZ [2]; Jurkat, series 1, n = 6): 0.2712
FC_HU (log2 fold change) (SNX27_PDZ [2]; Jurkat, series 1, n = 6): -0.4564
Ratio_HU (SNX27_PDZ [2]; Jurkat, series 1, n = 6): 0.7288
pKapp_significant_binders_HU (SNX27_PDZ [2]; apparent, Eq. 2, Jurkat, series 1, significant binders (1 σ, P < 0.05)): 4.572

CC(C)C[C@H](NC(=O)[C@H](CO)NC(=O)[C@H](CO)NC(=O)CCC(=O)NCCCOCCOCCOCCCNC(=O)CCCC[C@@H]1SC[C@@H]2NC(=O)N[C@@H]21)C(=O)N[C@@H](CCC(N)=O)C(=O)N[C@@H](CO)C(=O)N[C@@H](CC(C)C)C(=O)N[C@@H](CCC(=O)O)C(=O)N[C@H](C(=O)N[C@@H](CO)C(=O)N[C@H](C(=O)O)C(C)C)[C@@H](C)O [ATP2B4] ({X1-Suc}-SSLQSLETSV-OH; C-terminus assumed)
pKd_PDZ2 (SCRIB PDZ2): 4.90
pKd_PDZ3 (SCRIB PDZ3): 5.11
pKd_PDZ4 (SCRIB PDZ4): 4.38
pKd (fragmentomic affinity) [5]: 5.70
pKd_PDZ1 (SCRIB PDZ1): 5.03

VTN: Vitronectin
FC_AP (log2 fold change) (SNX27_PDZ [3]): 0.6536
Ratio_AP (SNX27_PDZ [3]): 1.573
pKapp_HU_not_filtered (SNX27_PDZ [4]): 4.715
pKapp_significant_binders_HU (SNX27_PDZ [4]): 4.715
BI_HU (SNX27_PDZ [4]): 0.3408
FC_HU (log2 fold change) (SNX27_PDZ [4]): -0.6012
Ratio_HU (SNX27_PDZ [4]): 0.6592

VPS26B: component of the retromer complex
pKapp (full-length SNX27): 5.23

CC[C@H](C)[C@H](NC(=O)CCC(=O)NCCCOCCOCCOCCCNC(=O)CCCC[C@@H]1SC[C@@H]2NC(=O)N[C@@H]21)C(=O)N[C@@H](CCC(N)=O)C(=O)N[C@@H](CCCNC(=N)N)C(=O)N[C@@H](CCC(=O)O)C(=O)N[C@@H](CC(=O)O)C(=O)N[C@@H](CCC(N)=O)C(=O)N[C@@H](CCC(=O)O)C(=O)N[C@H](C(=O)N[C@@H](C)C(=O)N[C@H](C(=O)O)C(C)C)[C@@H](C)O [DGKZ] ({X1-Suc}-IQREDQETAV-OH; C-terminus assumed)
pKd_PDZ2 (SCRIB PDZ2): 4.86
pKd_PDZ3 (SCRIB PDZ3): 5.05
pKd_PDZ4 (SCRIB PDZ4): 4.40
pKd [6]: 5.7
Hill coefficient ([7]; Hill equation fit, three replicates): 0.6
cooperativity [7]: negative cooperativity
pKd (fragmentomic affinity) [5]: 6.0
pKd_PDZ1 (SCRIB PDZ1): 4.71

SNX1: component of the SNX-BAR complex
pKapp (full-length SNX27): 5.47

— article PMC9770967, “Native holdup (nHU) to measure binding affinities from cell extracts” (Science Advances, 2022)
